# In US5605892A, “Compositions of arginine amide with cyclodextrin of caffeine, and methods of use” (priority 1993, dated 1997):
# Assays:
# [1] = test system: fibrin formation; conditions: administration for a few weeks after the operation, cited from earlier work
# [2] = Eye irritation examination; assay type: in vivo, house rabbits
# Description: Eye irritation caused by the respective, aforementioned solutions of α-cyclodextrin, β-cyclodextrin, γ-cyclodextrin and caffeine was examined using house rabbits.
# [3] = Solubility test of argatroban in water with various compounds (shaken with excess argatroban, HPLC); assay type: physicochemical; conditions: for solubility thermodynamic at 12 h: phosphate buffer, pH 7, aqueous buffer, phosphate buffer pH 7.0, 25° C.
# Method: The solubility of argatroban in water was determined by the use of various compounds.
# An excess amount of argatroban was added to a phosphate buffer (pH 7.0) containing a compound at a concentration of 1.0 W/V % and the mixture was shaken at 25° C. for 12 hours. The amount of the argatroban dissolved in this solution was measured by HPLC to determine the solubility.
# [4] = Stability test: aqueous solutions in glass ampoules preserved in shade or under light exposure; assay type: physicochemical; conditions: argatroban with caffeine
# Description: Aqueous solutions (pH 7) containing 0.05 W/V % or 0.1 W/V % argatroban and having the formulations 1-6 shown in Table 2 below were filled in glass ampoules and preserved in shade or under light exposure of […]. Each solution was examined for pH, appearance, insoluble matter and residual content of argatroban.
# [5] = test system: fibrin formation in anterior sac; assay: Inhibition of fibrin formation in anterior sac after argon laser irradiation of iris, slit lamp evaluation; assay type: in vivo, colored house rabbits
# Description: Reference Example--Argatroban concentration and inhibition of fibrin formation in anterior sac
# Animal used: 18 colored house rabbits weighing 2 kg and showing no abnormality in the eyes by visual observation
# Drug used: test drug (a solution of argatroban at a concentration of 0.1 W/V % or 0.2 W/V % prepared according to the eye drop of Example 1)
# : control (physiological saline)
# Test: Fibrin was formed in anterior sac by irradiation at four sites in iris with argon laser (AC-3500, Nidek). The irradiation was conducted at a spot size of 100 μm, time 0.2 sec and output 1 watt. The fibrin in anterior sac was evaluated according to the evaluation criteria given below for the visual observation with time with a slit lamp after the irradiation up to 3 hours thereafter.
# The test drug argatroban was administered 7 times by installation of 50 μl of the drug to one of the eyes every 10 minutes beginning from 30 minutes before the laser irradiation to 30 minutes after the irradiation, and physiological saline was administered to the other eye.
# Slit lamp observation: The presence of fibrin at the 4 sites irradiated with laser was graded (0 or 1). When the fibrin amount was great, the grade was doubled. The fibrin in pupil region was graded in five stages of from 0 to 4 points. The full mark was; irradiation site: 4 points×2+pupil region: 4 points=12 points.
# [6] = Solubility of argatroban in water (background statement); assay type: physicochemical; conditions: 25° C., pH range 7.2-7.8
# Method: (§1) Taking one of the aforementioned arginine amides, (2R,4R)4-methyl-1-[N^2 -((RS)-3-methyl-1,2,3,4-tetrahydro-8-quinolinesulfonyl)-L-arginyl]-2-piperidinecarboxylic acid monohydrate (generally called argatroban) as an example, it is used at a concentration of 1 mg/ml or above as an eye drop or entoptic perfusate for the above-mentioned purpose.
# [7] = Stability of aqueous solution of argatroban in a brown bottle (background statement); assay type: physicochemical
# Method: as §1
# [8] = solutions of Example 1, compound at 1.0 W/V %
smiles,measurement,setting,value
COc1ccc2c(c1)c(CC(=O)O)c(C)n2C(=O)c1ccc(Cl)cc1 [indomethacin],effect after entoptic operation,[1],has not shown dependable effects
same,adverse effects after entoptic operation,[1]; though not often,delay in healing of wounds or disorders in cornea
OC[C@H]1O[C@@H]2O[C@H]3[C@H](O)[C@@H](O)[C@@H](O[C@H]4[C@H](O)[C@@H](O)[C@@H](O[C@H]5[C@H](O)[C@@H](O)[C@@H](O[C@H]6[C@H](O)[C@@H](O)[C@@H](O[C@H]7[C@H](O)[C@@H](O)[C@@H](O[C@H]8[C@H](O)[C@@H](O)[C@@H](O[C@H]9[C@H](O)[C@@H](O)[C@@H](O[C@H]1[C@H](O)[C@H]2O)O[C@@H]9CO)O[C@@H]8CO)O[C@@H]7CO)O[C@@H]6CO)O[C@@H]5CO)O[C@@H]4CO)O[C@@H]3CO [γ-cyclodextrin],Eye irritation,[2]; [8],"no specific problems, thus showing no harmful effect on the eye tissue"
Cn1c(=O)c2c(ncn2C)n(C)c1=O [caffeine],Eye irritation,[2]; [8],"no specific problems, thus showing no harmful effect on the eye tissue"
OC[C@H]1O[C@@H]2O[C@H]3[C@H](O)[C@@H](O)[C@@H](O[C@H]4[C@H](O)[C@@H](O)[C@@H](O[C@H]5[C@H](O)[C@@H](O)[C@@H](O[C@H]6[C@H](O)[C@@H](O)[C@@H](O[C@H]7[C@H](O)[C@@H](O)[C@@H](O[C@H]1[C@H](O)[C@H]2O)O[C@@H]7CO)O[C@@H]6CO)O[C@@H]5CO)O[C@@H]4CO)O[C@@H]3CO [α-cyclodextrin],Eye irritation,"[2]; rabbit, in vivo","no specific problems, thus showing no harmful effect on the eye tissue"
"CC1CNc2c(cccc2S(=O)(=O)N[C@@H](CCCNC(=N)N)C(=O)N2CC[C@@H](C)C[C@@H]2C(=O)O)C1.O (mixture of isomers) [argatroban, (2R,4R)4-methyl-1-[N^2-((RS)-3-methyl-1,2,3,4-tetrahydro-8-quinolinesulfonyl)-L-arginyl]-2-piperidinecarboxylic acid monohydrate]",solubility thermodynamic at 12 h,[3]; argatroban with caffeine 1.0 W/V %,2000 µg/mL
same,solubility thermodynamic at 12 h,[3]; argatroban with α-cyclodextrin 1.0 W/V %,1340 µg/mL
same,solubility thermodynamic at 12 h,[3]; argatroban with β-cyclodextrin 1.0 W/V %,2590 µg/mL
same,solubility thermodynamic at 12 h,[3]; argatroban with γ-cyclodextrin 1.0 W/V %,1320 µg/mL
same,solubility thermodynamic at 12 h,"[3]; argatroban, no compound added",930 µg/mL
same,solubility of argatroban relative to that obtained when no compound was added,[3]; with caffeine 1.0 W/V %,about twice
same,improvement in solubility,"[3]; with α-, β-, γ-cyclodextrin and caffeine",superior improvement in solubility
same,solubility of argatroban relative to that obtained when no compound was added,[3]; with β-cyclodextrin 1.0 W/V %,about thrice
same,stability against light,[4],improved by caffeine
same,percent inhibition of fibrin formation,"[5]; 0.1 W/V % argatroban, 50 μl instilled 7 times every 10 minutes",about 50%
same,inhibition of fibrin formation at every measurement point,"[5]; 0.1 W/V % argatroban, up to 3 hours after laser irradiation",significantly inhibited
same,inhibition of fibrin formation,"[5]; 0.2 W/V % argatroban, 50 μl instilled 7 times every 10 minutes",completely inhibited
same,solubility,[6],~900 µg/mL
same,preservation stability of aqueous solution,[7],can be preserved stably in a brown bottle
OC[C@H]1O[C@@H]2O[C@H]3[C@H](O)[C@@H](O)[C@@H](O[C@H]4[C@H](O)[C@@H](O)[C@@H](O[C@H]5[C@H](O)[C@@H](O)[C@@H](O[C@H]6[C@H](O)[C@@H](O)[C@@H](O[C@H]7[C@H](O)[C@@H](O)[C@@H](O[C@H]8[C@H](O)[C@@H](O)[C@@H](O[C@H]1[C@H](O)[C@H]2O)O[C@@H]8CO)O[C@@H]7CO)O[C@@H]6CO)O[C@@H]5CO)O[C@@H]4CO)O[C@@H]3CO [β-cyclodextrin],Eye irritation,"[2]; rabbit, in vivo","no specific problems, thus showing no harmful effect on the eye tissue"
